± gives the standard deviation of the averaged measurements.
Experiments:
[1] = system: STS26T; assay: drug sensitivity score (DSS, CellTiter-Glo viability, 72 h) (DSS (dimensionless)); higher = more sensitive; extreme values may be limits of the assay
Outline: (§1)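 After seeding 750–1000 cells per well of MPNST cell lines or primary human Schwann cells into 384-well plates preprinted with each compound at five concentrations in 10-fold steps, plates were kept 72 h at 37 °C, 5% CO2. Viability was read as CellTiter-Glo ATP luminescence relative to vehicle and positive-control wells, with duplicates averaged where present. The data were fitted with four-parameter logistic models. Drug sensitivity score and relative IC50, censored at the top concentration, derive from the fits, and percent inhibition refers to the top concentration.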

[2] = system: S1507-2; assay: as above
Outline: as §1

[3] = system: ST8814; assay: as above
Outline: as §1

[4] = system: HSC1 (primary human Schwann cells); assay: as above
Outline: as §1

[5] = system: YST-1; assay: as above
Outline: as §1

[6] = system: HS-PSS; assay: as above
Outline: as §1

[7] = system: HS-Sch-2; assay: as above
Outline: as §1

[8] = system: HSC2 (primary human Schwann cells); assay: as above
Outline: as §1

[9] = system: S462; assay: as above
Outline: as §1

[10] = system: STS26T; assay: drug sensitivity score (DSS, CellTox-Green cytotoxicity, 72 h) (DSS (dimensionless)); higher = more cytotoxic; extreme values may be limits of the assay
Outline: (§2)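 For 72 h at 37 °C, MPNST cell lines and primary human Schwann cells were exposed in 384-well plates to five 10-fold compound dilutions. CellTox-Green, added before seeding at a final 1:1000 dilution, gave fluorescence from DNA released by disrupted cells. Signals were scaled to vehicle and positive-control wells, cultures failing plate quality control were left out, and four-parameter logistic fits were applied. Relative IC50 and drug sensitivity score were derived from the fits, with IC50 censored at the top concentration.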

[11] = system: S1507-2; assay: as above
Outline: as §2

[12] = system: ST8814; assay: as above
Outline: as §2

[13] = system: HSC1 (primary human Schwann cells); assay: as above
Outline: as §2

[14] = system: HS-PSS; assay: as above
Outline: as §2

[15] = system: HSC2 (primary human Schwann cells); assay: as above
Outline: as §2

[16] = system: STS26T; assay: % inhibition of CellTiter-Glo viability at highest tested concentration (72 h), relative to DMSO and benzethonium chloride controls; higher = more inhibition
Outline: as §1

[17] = system: S1507-2; assay: as above
Outline: as §1

[18] = system: ST8814; assay: as above
Outline: as §1

[19] = system: HSC1 (primary human Schwann cells); assay: as above
Outline: as §1

[20] = system: YST-1; assay: as above
Outline: as §1

[21] = system: HS-PSS; assay: as above
Outline: as §1

[22] = system: HS-Sch-2; assay: as above
Outline: as §1

[23] = system: HSC2 (primary human Schwann cells); assay: as above
Outline: as §1

[24] = system: S462; assay: as above
Outline: as §1

SMILES | drug sensitivity score [1] | drug sensitivity score [2] | drug sensitivity score [3] | drug sensitivity score [4] | drug sensitivity score [5] | drug sensitivity score [6] | drug sensitivity score [7] | drug sensitivity score [8] | drug sensitivity score [9] | drug sensitivity score [10] | drug sensitivity score [11] | drug sensitivity score [12] | drug sensitivity score [13] | drug sensitivity score [14] | drug sensitivity score [15] | % inhibition [16] | % inhibition [17] | % inhibition [18] | % inhibition [19] | % inhibition [20] | % inhibition [21] | % inhibition [22] | % inhibition [23] | % inhibition [24]
Cc1ccc(Nc2nccc(N(C)c3ccc4c(C)n(C)nc4c3)n2)cc1S(N)(=O)=O [Pazopanib] (max concentration tested 10000 nM) | 0 | 0.325 ± 0.46 | 0 | 2.03 | 0 | 6.09 | 1.37 | 0.68 | 0 | 0 | 0 | 0 | 0 | 0 | 0 | 7.27% | 9.04 ± 7% | -2.02% | 20.7% | 0.99% | 42.6% | 20.7% | 15.2% | -0.988 ± 9.1%
N#CCNC(=O)c1ccc(-c2ccnc(Nc3ccc(N4CCOCC4)cc3)n2)cc1 [Momelotinib] (max concentration tested 10000 nM) | 3.24 | 3.09 ± 0.61 | 3.16 | 7.64 | 5.7 | 3.21 | 5.45 | 8.06 | 4.7 ± 0.25 | 0 | 0.683 ± 0.4 | 0 | 0.946 | 0 | 1.87 | 58.8% | 67.1 ± 11% | 41.6% | 76.8% | 55.4% | 49.2% | 60.3% | 81.2% | 74.7 ± 4.7%
Nc1nc(F)nc2c1ncn2[C@@H]1O[C@H](CO)[C@@H](O)[C@@H]1O [Fludarabine] (max concentration tested 10000 nM) | 2.39 | 0.851 ± 1.2 | 0 | 0.98 | 3.5 | 2.18 | 2.33 | 2.94 | 0.582 ± 0.72 | 0 | 0 | 0 | 0 | 0 | 0 | 31.6% | 17.2 ± 10% | 1.25% | 27.8% | 69.7% | 24.9% | 35% | 48.6% | 20 ± 11%
CC1=NN(c2ccc(C(=O)O)cc2)C(=O)C1=Cc1ccc(-c2cc(C)c(C)cc2[N+](=O)[O-])o1 [C646] (max concentration tested 25000 nM) | 0 | 0.311 ± 0.44 | 0 | 0 | 0.68 | 0.34 | 0 | 0 | 0.301 ± 0.43 | 0 | 2.69 ± 3.8 | 0 | 0 | 0 | 1.71 | 1.97% | 9.84 ± 4.1% | 3.46% | -3.92% | 19.6% | 17.2% | -1.27% | -4.28% | 1.13 ± 8.9%
CC(C)(C)c1cc(NC(=O)Nc2ccc(-c3cn4c(n3)sc3cc(OCCN5CCOCC5)ccc34)cc2)no1 [Quizartinib] (max concentration tested 1000 nM) | 1.24 | 1.94 ± 0.75 | 2.56 | 3.73 | 7.45 | 0 | 0.1 | 1.32 | 4.8 ± 1.2 | 0 | 0 | 0 | 0 | 0 | 0 | 15.3% | 21.3 ± 1.4% | 15.8% | 47.8% | 78.7% | -10.7% | 14.4% | 36.6% | 64.2 ± 37%
N#Cc1ccc(COC[C@H]2O[C@@H](n3c(NCc4ccc(Cl)c(Cl)c4)nc4c(N)ncnc43)[C@H](O)[C@@H]2O)cc1 (max concentration tested 10000 nM) | 3.06 | 0 | 0 | 5.32 | 2.63 | 0.47 | 0 | 8 | 0.314 ± 0.44 | 0.0103 | 0 | 0 | 0 | 0 | 0 | 30.7% | 7.48 ± 0.46% | 8.16% | 41.6% | 28.8% | 21.7% | 9.8% | 44.2% | 11.3 ± 7.2%
